Laboratory results: patent US20250228757A1, “SUNSCREEN COMPOUNDS AND FORMULATIONS” (Oregon State University, priority 2024, published 2025)
Entries after “also recorded” stand apart in the source; their conditions may differ. Like-named read-outs stand apart in the source and are kept apart here.

Legend:
[1] = system: human primary epidermal keratinocytes (HPEKs); experiment: Dose-response CellTiter-Glo viability assay without UVB; format: cell-based; details: 48 h, up to 50 μM, absence of UVB
Procedure: (§1) Immortalized keratinocyte HaCaT cells (ATCC, Manassas, VA, USA) were cultured in DMEM supplemented with 5% fetal bovine serum. Human primary epidermal keratinocytes (HPEKs) (ATCC) were cultured in EpiLife medium (ThermoFisher Scientific) supplemented with Human Keratinocyte Growth Supplement (ThermoFisher Scientific). HPEKs were maintained below ten passages. Cell lines were incubated in a humidified environment at 37° C. with 5% CO2.
(§2) For viability studies, HaCaT cells were seeded 5000 cells/well in clear 96-well plates (Corning, Corning, NY, USA). After 24 h, cells were treated with MBITC or MBA at 0, 3.125, 6.25, 12.5, 25, or 50 μM and incubated with the compounds for 48 h. Viability was then determined by MTS assay using CellTiter 96® AQueous One Solution Cell Proliferation Assay (Promega Corporation, Madison, WI, USA). Absorption was measured using Cytation® 5.0 Imaging Reader (Agilent, Santa Clara, CA, USA). HPEKs were seeded 5000 cells/well into white, opaque bottom 96-well plates (Greiner Bio-One) and incubated for 48 h. HPEKs were then treated with ethanol vehicle control or a 5-point half-log serial dilution of MBA starting at 50 μM. After 48 h, CellTiter-Glo® (Promega Corporation, Madison, WI) viability assays were performed per the manufacturer's instructions, and luminescence was read using a Synergy4 (Biotek, Winooski, VT) plate reader.

HaCaT cells [2] = experiment: UV protection dose-response MTS assay; format: cell-based, human
Procedure: as §1
For UV protection dose-response assays, HaCaT cells were seeded 5000 cells/well into clear 96-well plates (Corning). After 24 h, cells were treated with MBITC or MBA at 0, 3.125, 6.25, 12.5, 25, or 50 µM and incubated for 12 h. Cells were washed in PBS and irradiated with 10 mJ/cm^2 UVB using a UV Transilluminator 2000. After irradiation, fresh media was added, cells incubated for 36 h, and viability was determined by MTS assay as before. HPEKs were seeded 5000 cells/well into black, opaque bottom 96-well plates (Greiner Bio-One, Monroe, NC, USA) and incubated for 48 h. Afterward, cells were treated with vehicle control or a 10-point half-log serial dilution of MBITC or MBA starting at 50 μM and incubated for 12 h. Before irradiation, the conditioned cell culture medium was re-moved from each well, retained, and PBS containing the same dose of EtOH or the compounds was added to the wells. Cells were irradiated with a 10 mJ/cm^2 dose using UVB TL 20W/12 RS M3 lights (Philips, Amsterdam, Netherlands). The dose of UVB was quantified using an IL1400A NIST Traceable Photometer (International Light, Peabody, MA, USA). Following irradiation, the PBS was aspirated from the wells, and conditioned media was added. After 36 h, CYQUANT® (ThermoFisher Scientific) assays were performed per the manufacturer's instructions, and fluorescent signal read using a Synergy4® (Biotek, Winooski, VT) plate reader. Cell counts were extrapolated from a standard curve of fluorescent signal activity vs. HPEK cell counts. Time kinetics involved the same compound and UVB treatment scheme as before, but CYQUANT® assays were performed at 24, 48, 72, or 96 h post-UVB irradiation.

UV spectra = format: physicochemical; details: UV spectrum
[3] = system: human primary epidermal keratinocytes (HPEKs); experiment: UV protection CyQuant cell count assay (dose-response and time kinetics); format: cell-based; details: 10 mJ/cm^2 UVB
Procedure: as §1
For UV protection dose-response assays, HaCaT cells were seeded 5000 cells/well into clear 96-well plates (Corning). After 24 h, cells were treated with MBITC or MBA at 0, 3.125, 6.25, 12.5, 25, or 50 µM and incubated for 12 h. Cells were washed in PBS and irradiated with 10 mJ/cm^2 UVB using a UV Transilluminator 2000. After irradiation, fresh media was added, cells incubated for 36 h, and viability was determined by MTS assay as before. HPEKs were seeded 5000 cells/well into black, opaque bottom 96-well plates (Greiner Bio-One, Monroe, NC, USA) and incubated for 48 h. […] The dose of UVB was quantified using an IL1400A NIST Traceable Photometer (International Light, Peabody, MA, USA). […] After 36 h, CYQUANT® (ThermoFisher Scientific) assays were performed per the manufacturer's instructions, and fluorescent signal read using a Synergy4® (Biotek, Winooski, VT) plate reader. […]

Solubility = format: physicochemical
UVB absorption assay = format: physicochemical; details: for UVB absorption: time needed to reach a 5 mJ/cm^2 dose: in ethanol, 1, 10, 25, 50 μM
Procedure: MBITC or MBA was diluted in ethanol at 0, 1, 10, 25, and 50 μM, added to separate wells of a 24-well plate (Corning, Corning, NY, USA), and irradiated with UVB light using a UV Transilluminator 2000 (Bio-Rad, Hercules, CA, USA) to reach 5 mJ/cm^2 or 10 mJ/cm^2. A Daavlin X-96 irradiance meter (Daavlin, Bryan, OH, USA) measured energy transmittance through the dish. Each well was separately irradiated, and the time was measured to reach the specified energy density.

[4] = system: cyclobutane pyrimidine dimers (CPDs) in HPEKs; experiment: Immunocytochemistry for cyclobutane pyrimidine dimers after UVB; format: cell-based, human; details: 12 h treatment, 5 mJ/cm^2 UVB
Procedure: HPEKs were cultured to 80% confluence in 6-well plates containing gelatin-coated coverslips and treated with ethanol vehicle control or MBA. After 12 h, the conditioned cell culture medium was removed, retained, and PBS containing EtOH or MBA was added to each well. Plates were then irradiated with 5 mJ/cm^2 UVB, PBS removed, conditioned media re-added, and incubated for 24 h. Cells were then fixed in 75% methanol/25% acetic acid, washed with 70% EtOH, and DNA denatured in 70 mM NaOH (in 70% EtOH). Wells were then washed 3 times with PBS and denaturation quenched with 100 mM Tris —HCl (in 70% EtOH). Cells were then blocked with 10% normal goat serum (NGS) in PBS-T and incubated overnight at 4° C. with α-thymine dimer primary antibody (1:1000, Kamiya Bio-medical, Matsumoto, Nagano, Japan) in NGS blocking buffer. […] Corrected total cellular fluorescence (CTCF) was quantified using the ImageJ software package as described previously, except only nuclear CTCF for CPD staining was quantified and nuclei were selected for ROIs using manual thresholding for each field (Carpenter et al., J Invest Dermatol 2022, 142:1903-1911). For all quantifications, cells on the edges of each field were excluded.

p-γH2A.X in HPEKs = experiment: Immunoblotting for p-γH2A.X after UVB; format: cell-based, human; details: 5 mJ/cm^2 UVB; for p-γH2A.X reduction: 1 μM (lowest tested dose); for p-γH2A.X staining: 25 and 50 μM (higher concentrations)
Procedure: HPEKs were cultured to 80% confluence in 6-well plates and treated with ethanol vehicle control or MBA. Cells were then irradiated in the same manner as immunocytochemistry samples. After 36 h, cells were harvested by scraping into cold PBS, centrifuged, pellet resuspended in denaturing SDS lysis buffer, boiled, and sonicated as described previously (Carpenter et al., Mol Carcinog 2019, 58:1680-1690). Samples were normalized to protein content as determined by BCA Assay (ThermoFisher Scientific). SDS-PAGE was then performed using 10% gels and transferred to a 0.45 μm nitrocellulose membrane (GE Healthcare, Chicago, IL, USA). Blots were blocked for 1 h in 5% nonfat dry milk in TBS-T and incubated with α-p-γH2A.X antibody (1:1000, Cell Signaling Technology, Danvers, MA, USA) or Actin (1:2000, Bethyl Laboratories, Inc., Montgomery, TX, USA) in 5% bovine serum albumin in TBS-T overnight at 4° C. The next day, blots were incubated with HRP-conjugated Goat anti-rabbit IgG or Goat anti-mouse IgG secondary antibodies (1:2000, Calbiochem, San Diego, CA, USA) for 1 h. The immunoblots were developed using chemiluminescent reagents (GE Healthcare) and imaged with a MyECL imager (ThermoFisher Scientific).

HaCaT cells [5] = experiment: Dose-response MTS viability assay without UVB; format: cell-based, human; details: 48 h, 3.125-50 μM, absence of UVB irradiation
Procedure: as §1, §2

HPEKs = details: previous study, absence of UVB; cited from earlier work
human skin equivalents = details: Carpenter et al. 2018; cited from earlier work
[6] = HaCaT, 12 h treatment, 10 mJ/cm^2 UVB, MTS after 36 h

SMILES | cytotoxicity (viability, CellTiter-Glo) [1] | cytotoxic effects in the presence of UVB light (HaCaT cells [2]; [6]) | λmax (UV spectra) [nm] | protective effect, time kinetics ([3]; incubation up to four days) | prevention of UV-induced loss in proliferation (dose-response) ([3]; 12 h treatment, CyQuant) | solubility in ethanol (Solubility) | UVB absorption: time needed to reach a 5 mJ/cm^2 dose (UVB absorption assay) | intensity of the CPD staining (CTCF) [4] | total number of CPD+ cells vs vehicle control [4] | p-γH2A.X reduction (p-γH2A.X in HPEKs) | p-γH2A.X staining (p-γH2A.X in HPEKs) | cytotoxicity (viability, MTS) (HaCaT cells [5]) | cytotoxic effects in HPEKs (HPEKs) | cytotoxic effects in the presence of UVB light (HaCaT cells [2]) | protection from UVB-induced loss in proliferation (HaCaT cells [2]; [6]) | UVB absorption capacity, compared (UVB absorption assay; time needed to reach 5 or 10 mJ/cm^2) | UVB-induced DNA damage, proliferation, and matrix-metalloproteinase expression (human skin equivalents)
CCCCCCCCCCCCCC/C=C\CCCC(=O)NCc1cccc(OC)c1 [MBA, (Z)—N-(3-methoxybenzyl)eicos-5-enamide] | not cytotoxic at the tested doses | did not exhibit the same cytotoxic effects as the parental compound | 273 | did not reveal a protective effect | had the same effect as in HaCaT cells | ethanol soluble | only showed similar activity at a single concentration of 25 μM | substantially decreased | small but significant difference | trend of reduced p-γH2A.X | lack of elevated p-γH2A.X | little to no effect |  |  |  |  | 
COc1cccc(CN=C=S)c1 [MBITC, 3-methoxybenzyl isothiocyanate] |  |  | 273 |  |  |  | sufficient to increase the time needed to reach a 5 mJ/cm^2 dose at every tested concentration except 50 μM, where the time significantly decreased |  |  | less reduction; also recorded: trend of reduced p-γH2A.X | trend of increased p-γH2A.X staining compared to MBA |  | exhibited cytotoxic effects | displayed cytotoxic effects in the presence of UVB light | did not reverse the loss of proliferation | more UVB absorption capacity than MBA | reduce
COc1cccc(CCC#N)c1 [MPACN, 3-methoxybenzyl acetonitrile] |  |  |  |  |  |  |  |  |  |  |  |  |  |  |  |  | reduce
